From ChEMBL document CHEMBL1157955, “Anti-inflammatory neolignans from Piper kadsura” (J Nat Prod, 2006)

Assay: Antiinflammatory activity in human PMN assessed as inhibition of Phorbol-12-myristate-13-acetate-induced ROS production
Assay type: functional

| Compound | IC50 [µM] |
| --- | --- |
| O=C(/C=C/c1ccc(O)cc1)NCCc1ccc(O)cc1 [N-P-COUMAROYL TYRAMINE] | 8.4 |
| C=CCC1([C@H](C)[C@@H](OC(C)=O)c2ccc(OC)c(OC)c2)C=C(OC)C(OC)=CC1=O (stereo not given in full) [PIPERKADSIN B] | 12.2 |
| COc1c(O)cc2c3c(cc4ccccc4c13)N(OC)C2=O [PIPERLACTAM S] | 7 |
| C=CCC1=C[C@@](OC)(/C(C)=C/c2ccc(O)c(OC)c2)C(OC)=CC1=O [PIPERKADSIN A] | 4.3 |
| C=CCC1=CC(OC)(/C(C)=C/c2ccc3c(c2)OCO3)C(OC)=CC1=O (stereo not given) [FUTOQUINOL] | 13.1 |
